Patent US7945392B2, “Methods and systems for drug screening and computational modeling based on biologically realistic neurons” (McLean Hospital Corporation, priority 2005, dated 2011)

Columns and labels:
D1 receptor = D1 receptor (Homo sapiens, UniProt P21728); assay: Fraction of receptors occupied, calculated from drug concentration and Ki; settings: at a therapeutic olanzapine level
Excerpt: In particular, affinities of many drugs for receptors are well known. For example, Goodman and Gilmans “The Pharmacological Basis of Therapeutics,” Tenth Edition.

[1] = highly selective antagonist at the D4 receptor; cited from earlier work

Chain of D1 receptor (P21728 whole entry): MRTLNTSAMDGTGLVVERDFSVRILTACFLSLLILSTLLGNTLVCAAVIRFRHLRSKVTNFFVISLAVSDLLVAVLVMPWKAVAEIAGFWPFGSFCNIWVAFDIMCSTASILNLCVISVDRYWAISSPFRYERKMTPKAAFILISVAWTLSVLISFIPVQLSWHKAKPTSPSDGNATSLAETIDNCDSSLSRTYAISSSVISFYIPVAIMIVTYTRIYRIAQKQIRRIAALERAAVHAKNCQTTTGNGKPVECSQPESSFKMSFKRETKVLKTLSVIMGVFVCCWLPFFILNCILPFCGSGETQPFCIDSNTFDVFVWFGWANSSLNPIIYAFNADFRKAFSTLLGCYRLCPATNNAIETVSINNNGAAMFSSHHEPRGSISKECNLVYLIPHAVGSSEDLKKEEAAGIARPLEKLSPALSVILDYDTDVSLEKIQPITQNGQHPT

Cc1cc2c(s1)Nc1ccccc1N=C2N1CCN(C)CC1 [olanzapine]
D1 receptors blocked (antagonized) (D1 receptor): approximately 47%

Clc1ccc(N2CCN(Cc3c[nH]c4ncccc34)CC2)cc1 [L-745870]
antipsychotic effectiveness [1]: ineffective
